Measurements: US6162810A, “Inadone and tetralone compounds for inhibiting cell proliferation” (The Regents of the University of California, priority 1998, dated 2000)

How the values were obtained:
[1] = tested on: human Jurkat T cell leukemia cells; assay: Cytotoxicity to human Jurkat T cell leukemia cells, 3 days culture; type: cell-based; details: 72 h, concentration necessary to kill 50% of the cells, three days, OD570/650, read-out: TC50 (the source's name)
Description: (A) The compounds prepared in Example 1 above were tested for biological activity by culturing human Jurkat T cell leukemia cells for three days at an initial density of 10^5 cells/ml in RPMI 1640+10% FBS (fetal bovine serum). Compounds of the invention were added, and the concentration necessary to kill 50% (TC50) of the cells was determined by OD570/650.

[2] = tested on: CEM WT, CEM AB9228, MOLT-4, Jurkat, NALL-1, WI-L2, K562, and HL-60 cells; assay: Cytotoxicity to various proliferating cell lines (average); type: cell-based, human; details: Homo sapiens, average TC50 over various proliferating cell lines; read-out: TC50 (the source's name)
Description: (§1) (B) Similarly, compounds of the invention were tested for their ability to kill CEM WT, CEM AB9228, MOLT-4, Jurkat, NALL-1, WI-L2, K562, and HL-60 cells.

[3] = tested on: proliferating cells; assay: Ability of further compounds to kill proliferating cells (average); type: cell-based; details: average TC50, proliferating cells; read-out: TC50 (the source's name)
Description: as §1
(C) Proceeding as described above, further compounds were tested for their ability to kill proliferating cells.

[4] = tested on: tubulin; assay: Inhibition of tubulin assembly; type: biochemical, bovine; details: 10 μM tubulin, 20 min incubation, 30° C.; read-out: GI50 inhibitory concentration (tubulin assembly)
Description: To evaluate the effects of the TB compounds of the invention on tubulin, bovine brain tubulin (2.2 mg/ml) was incubated in PEM80 (80 mM K-PIPES, 1 mM MgCl2, 1 mM EGTA) containing 10% glycerol and 2 mM GTP for 30 minutes at 37° C. in the presence or absence of 20 μg/ml nocodazole, 1 mM paclitaxel, or TB compound no. IK-178 at various concentrations. Tubulin polymer was resolved from monomer by sedimentation through a cushion of 60% glycerol in PEM80 at 70,000 rpm for 30 min at 37° C. in a Beckman TLA100 rotor. A fraction of the supernatant was removed for analysis, the cushion washed and then aspirated, and the pellet resuspended in SDS-PAGE sample buffer. Equal proportions of the supernatant and the pellet were then resolved by SDS-PAGE and tubulin visualized by staining with Coomassie blue.
The quantitative assessment of drug inhibition of tubulin polymerization and evaluation of inhibition of [^3 H]colchicine binding to tubulin were then performed. […] Samples were placed on ice and GTP (0.4 mM) was added. Reaction mixtures were transferred to 0° C. cuvettes in Gilford 250 spectrophotometers, baselines were establishes/d, and the temperature was jumped to 30° C. with electronic temperature controllers (about 60 sec). The IC^50 was defined as the drug concentration required to inhibit extent of assembly after a 20 min incubation. […]

[5] = tested on: tubulin; assay: Inhibition of [3H]vinblastine binding to tubulin; parameters: species or system bovine; details: single experiment
Description: The TB compounds of the invention (as represented by TB compound IK-178), are nearly as potent as the strong tubulin assembly inhibitor, combretastatin A-4 (CS-A4). In particular, the GI^50 inhibitory concentration of CS-A4 was 1.2±0.03 μM (n=4), while that of TB compound IK-178 was 1.7±0.1 μM (n=3).

[6] = tested on: HL-60/ADR cells; assay: Apoptosis of HL-60/ADR cells (FACS); type: cell-based, human
Description: FACS analysis was performed to determine the influence of the TB compounds of the invention on growth cycling of cells (the analysis was performed on harvested cells, fixed in ice-cold 70% ethanol solution, then treated with 100 μg/ml of RNAse A and stained with 50 μg/ml propidium iodide for 1 h at 37° C. DNA content of the cells was analyzed by flow cytometry (Becton Dickinson FACScalibur), and the cell cycle distribution was calculated with the program ModFit LT 2.0 (Verity Software)).
First, the stage at which the TB compounds of the invention arrest growth of HL-60 and HL-60/ADR cells was determined by FACS analysis and caspase-3 activation as described above.

[7] = tested on: caspase-3 in HL-60 cells; assay: Caspase-3 activation in HL-60 cells; type: cell-based, human; details: HL-60 cells
[8] = tested on: MCF-7; assay: Growth inhibition of MCF-7 (wild type); type: cell-based; details: Homo sapiens, MCF7, ±1 SD, n>5
[9] = tested on: MCF-7/ADR; assay: Growth inhibition of MCF-7/ADR (MDR); type: cell-based; details: Homo sapiens, NCI/ADR-RES, ±1 SD, n>5
[10] = tested on: MES-SA; assay: Growth inhibition of MES-SA (wild type); type: cell-based; details: Homo sapiens, ±1 SD, n>5
[11] = tested on: MES-SA/DX5; assay: Growth inhibition of MES-SA/DX5 (MDR); type: cell-based; details: Homo sapiens, ±1 SD, n>5
[12] = tested on: MDA-MB-321; assay: Growth inhibition of MDA-MB-321 (wild type); type: cell-based; details: Homo sapiens, ±1 SD, n>5
[13] = tested on: MDA3-1/gp170; assay: Growth inhibition of MDA3-1/gp170 (MDR); type: cell-based; details: Homo sapiens, MDR1, ±1 SD, n>5
[14] = tested on: HL-60; assay: Growth inhibition of HL-60 (wild type); type: cell-based; details: Homo sapiens, ±1 SD, n>5
[15] = tested on: HL-60/ADR; assay: Growth inhibition of HL-60/ADR (MDR); type: cell-based; details: Homo sapiens, HL60/ADR, ±1 SD, n>5
[16] = tested on: CEM; assay: Growth inhibition of CEM (wild type); type: cell-based; details: Homo sapiens, CCRF-CEM, ±1 SD, n>5
[17] = tested on: CEM/VLB100; assay: Growth inhibition of CEM/VLB100 (MDR); type: cell-based; details: Homo sapiens, ±1 SD, n>5
[18] = tested on: KB-3-1; assay: Growth inhibition of KB-3-1 (wild type); type: cell-based; details: Homo sapiens, ±1 SD, n>5
[19] = tested on: KB-GRC-1; assay: Growth inhibition of KB-GRC-1 (MDR); type: cell-based; details: Homo sapiens, MDR1, ±1 SD, n>5
[20] = tested on: MV522; assay: Growth inhibition of MV522 (wild type); type: cell-based; details: Homo sapiens, ±1 SD, n>5
[21] = tested on: MV522/Q6; assay: Growth inhibition of MV522/Q6 (MDR); type: cell-based; details: Homo sapiens, ±1 SD, n>5
[22] = tested on: HL-60/ADR and MDF-7/ADR cells; assay: MTT assay, visual comparison of cells with and without MDR (FIGS. 1 and 2); type: cell-based, human; details: 3 days
[23] = tested on: KB-GRC-1 and MV522/Q6; assay: MTT proliferation assay of mdr1 overexpressing transfectomas; type: cell-based, human; details: 72 h

SMILES: COc1cc(C=C2Cc3cc(OC)c(OC)cc3C2O)cc(OC)c1 (stereo not drawn) [5,6-dimethoxy-2-(3',5'-dimethoxyphenylmethylene)-1-hydroxyindane]
- CC50 [1]: 750 nM

SMILES: COc1cc2c(cc1OC)C(=O)/C(=C/c1cc(Cl)cc(Cl)c1)C2 [5,6-dimethoxy-2-(3',5'-dichlorophenylmethylene)-1-indanone]
- CC50 [1]: 750 nM
- CC50 [2]: 750 nM
- CC50 [3]: 2000 nM

SMILES: COc1cc(C=C2Cc3cc(OC)c(OC)cc3C2=NO)cc(OC)c1 [5,6-dimethoxy-2-(3',5'-dimethoxyphenylmethylene)-1-hydroximinioindane]
- CC50 [1]: 800 nM
- CC50 [2]: 800 nM

SMILES: COc1cc(/C=C2\CCc3cc(OC)c(OC)cc3C2=O)cc(OC)c1 [6,7-dimethoxy-2-(3',5'-dimethoxyphenylmethylene)-1-tetralone]
- CC50 [1]: 5000 nM
- CC50 [2]: 4000 nM

SMILES: COc1cc2c(cc1OC)C(=O)C(=Cc1cc(C)ccc1C)C2 [5,6-dimethoxy-2-(2',5'-dimethylphenylmethylene)-1-indanone]
- CC50 [2]: 162000 nM
- CC50 [3]: 30500 nM

SMILES: COc1ccc(/C=C\c2cc(OC)c(OC)c(OC)c2)cc1O [CS-A4, combretastatin A-4, reference compound]
- GI50 [4]: 1200 ± 30 nM
- inhibition of [3H]vinblastine binding to tubulin [5]: Neither agent inhibited

SMILES: COc1cc2c(c(OC)c1OC)-c1ccc(OC)c(=O)cc1[C@@H](NC(C)=O)CC2 [colchicine, reference compound]
- apoptosis [6]: did not induce the apoptosis
- caspase-3 activity [7]: did not activate caspase-3

SMILES: COc1cc(C=C2Cc3cc(OC)c(OC)cc3C2=O)cc(OC)c1 [5,6-dimethoxy-2-(3',5'-dimethoxyphenylmethylene)-1-indanone]
- CC50 [1]: 750 nM
- CC50 [2]: 750 nM
- CC50 [3]: 2000 nM

SMILES: COc1cc2c(cc1OC)C(=O)C(=Cc1cc([N+](=O)[O-])ccc1O)C2 [5,6-dimethoxy-2-(2'-hydroxy-5'-nitrophenylmethylene)-1-indanone]
- CC50 [2]: 15000 nM
- CC50 [3]: 14500 nM

SMILES: COc1cc2c(cc1OC)C(=O)C(=Cc1cc(C)cc(C)c1)C2 [5,6-dimethoxy-2-(3',5'-dimethylphenylmethylene)-1-indanone]
- CC50 [1]: 75 nM
- CC50 [2]: 75 nM
- CC50 [3]: 81 nM

SMILES: COc1cc2c(cc1OC)C(=O)C(=Cc1cccc(Cl)c1)C2 [5,6-dimethoxy-2-(3'-chlorophenylmethylene)-1-indanone]
- CC50 [2]: > 50000 nM
- CC50 [3]: 2500 nM

SMILES: CC(=O)O[C@H]1C(=O)[C@@]2(C)[C@H]([C@H](OC(=O)c3ccccc3)[C@]3(O)C[C@H](OC(=O)[C@H](O)[C@@H](NC(=O)c4ccccc4)c4ccccc4)C(C)=C1C3(C)C)[C@]1(OC(C)=O)CO[C@@H]1C[C@@H]2O [Paclitaxel, paclitaxel, reference compound]
- GI50 [8]: 50 ± 6 nM
- GI50 [9]: > 10000 nM
- GI50 [10]: < 1 nM
- GI50 [11]: > 1000 nM
- GI50 [12]: 50 ± 2 nM
- GI50 [13]: > 1000 nM
- GI50 [14]: < 1 nM
- GI50 [15]: > 1000 nM
- GI50 [16]: < 1 nM
- GI50 [17]: 606 ± 20 nM
- GI50 [18]: 7 ± 3 nM
- GI50 [19]: > 1000 nM
- GI50 [20]: 15 ± 4 nM
- GI50 [21]: 358 ± 8 nM
- sensitivity with acquisition of MDR [22]: sensitivity to paclitaxel was lost
- sensitivity of transfectomas overexpressing mdr1 [23]: resistant

SMILES: COc1cc2c(c([N+](=O)[O-])c1OC)C(=O)/C(=C/c1cc(C)c(O)c(C)c1)C2 [5,6-dimethoxy-7-nitro-2-(3',5'-dimethyl-4'-hydroxyphenylmethylene)-1-indanone]
- CC50 [2]: > 50000 nM
- CC50 [3]: > 50000 nM
